Series [1] concerns NK-1 receptor. Description: Formalin test, intrathecal oligonucleotide. The format is in vivo, rat. The procedure:
The formalin test is similar in some ways to the capsaicin test, in that a noxious chemical is injected under the skin. In the case of formalin, however, this produces nociceptive behavior lasting up to one hour, and thus represents a longer-term tonic pain. The pain score was determined using the same parameters outlined above for the capsaicin test. Oligonucleotides or ASCF control (artificial cerebral spinal fluid) were administered for 7 days prior to testing by continuous infusion (1 micro grams/microlitres/h) via Alzet® minipumps attached to intrathecal catheters for spinal delivery. […] Statistical analysis was performed by a two way ANOVA with time and treatment as independent measures. Time: F(9,44)=8.264, p<0.05, Treatment: F(9,44)=7.254, p<0.05.
Antisense (AS) oligonucleotide or ASCF control (artificial cerebral spinal fluid) was administered for 7 days prior to testing by continuous infusion (0.45 micro grams/microlitres/h) via Alzet® minipumps attached to intrathecal catheters for spinal delivery. […] Statistical analysis was performed by a two way ANOVA with time and treatment as independent measures. Time: F(9,17)=7.985, p<0.05, Treatment: F(9,17)=2.541, p>0.05.

Series [2] relates to NK-1 receptor. Description: CFA ankle joint arthritis model, ankle circumference, intrathecal oligonucleotide. The format is in vivo, rat. Conditions: intrathecal 1 micro grams/microlitres/h from 48 h prior to CFA injection; vs ACSF or MIS. The procedure: Complete Freund's Adjuvant (CFA) injection into the ankle joint of the rat produces two responses, an inflammatory response that begins within 24 hours and lasts approximately one week, and a later inflammatory response combined with symptoms modelling arthritis. Oligonucleotides or ASCF control (artificial cerebral spinal fluid) was administered for 48 h prior to CFA injection and continuously for the testing days (1 micro grams/microlitres/h) via Alzet® minipumps attached to intrathecal catheters for spinal delivery. […] Statistical analysis was performed using a one way ANOVA and post hoc analysis using the Dunnett's test.

Series [3] concerns NK-1 receptor. Description: CFA ankle joint arthritis model, ankle circumference, systemic oligonucleotide. The format is in vivo, rat. Conditions: 300 micro grams/kg, Q12 h, intraperitoneal from 2 days prior to CFA. The procedure:
Complete Freund's Adjuvant (CFA) injection (13.6 micro grams/25 microlitres) into the ankle joint of the rat produces two responses, an inflammatory response that begins within 24 hours and lasts approximately one week, and a later inflammatory response combined with symptoms modeling arthritis. Antisense (AS) oligonucleotide (300 micro grams/kg, Q12 h, intraperitoneal) or saline was administered for 2 days prior to CFA injection and throughout the time course of testing. In control animals CFA induces two phases of response as assessed by ankle circumference; the first is maximal at 48 h after injection and the second at day 18. […] Statistical analysis was performed using a two way ANOVA and post hoc analysis using the tukey's test.

Series [4] has as its system NK-1 receptor. Description: Mechanical response thresholds in naive rats, intrathecal oligonucleotide. Conditions: no surgery; intrathecal 1 micro grams/microlitres/h, prolonged administration. It is filed as in vivo, rat. The procedure:
The effect of intrathecal administration of NK-1 receptor antisense oligonucleotide on mechanical response thresholds in naive rats is shown in FIG. 6.
Oligonucleotides or ASCF control (artificial cerebral spinal fluid) were administered for 2 days prior to surgery, and throughout the time course of testing, by continuous infusion (1 micro grams/microlitres/h) via Alzet® minipumps attached to intrathecal catheters for spinal delivery.

Series [5] concerns NK-1 receptor. Description: Intradermal substance P-induced plasma extravasation in skin (Evans blue). It is filed as in vivo, rat. To be noted: 300 micro grams/kg, Q12 h, intraperitoneal for 6 days; intradermal substance P 6.7 nmol/100 microlitres. How it is done:
Intradermal injection of substance P and neurokinin A produce a wheal and flare inflammatory reaction. Antisense (AS) oligonucleotide (300 micro grams/kg, Q12 h, intraperitoneal) or saline was administered for 6 days prior to experimentation. Substance P or neurokinin A was injected into the dermis of the skin (6.7 nmol/100 microlitres) after intravenous administration of evans blue dye which allows for assessment of neuropeptide-induced plasma extravasation. […] Statistical analysis was performed using an unpaired t-test.

Series [6] has as its system NK-1 receptor. Description: Formalin test, systemic (intraperitoneal) oligonucleotide. The format is in vivo, rat. Conditions: 300 micro grams/kg, Q12 h, 6 days prior to testing, vs saline. The procedure:
The formalin test produces a biphasic nociceptive behavior that lasts up to one hour that is believed to represent a tonic, persistent pain. The index of nociceptive behavior is assessed based a weighted pain intensity scale, where the animal is given a value of 0 for showing no signs of favoring of the injected paw, 1—favoring of hind paw such that it is resting lightly on the floor, 2—elevation of hind paw, 3—licking or vigorously shaking the hind paw. The numerical ratings were calculated by multiplying the amount of time the rats spent in each category by the weighted factor indicated above for each 5 minute interval over a one hour time period. This was expressed by the following formula: (time spent in category 0*0+time spent in category 1*1+time spent in category 2*2+time spent in category 3*3)/300 seconds. Antisense (AS) oligonucleotide (300 micro grams/kg, Q12 h, intraperitoneal) or saline was administered for 6 days prior to testing. […] Statistical analysis was performed by a two way ANOVA with time and treatment as independent measures. Time: F=9.966, p<0.001, Treatment: F=31.85, p<0.001.

Series [7] relates to NK-1 receptor. Description: Substance P-induced thermal hyperalgesia, intrathecal oligonucleotide. It is filed as in vivo. Conditions: intrathecal 75 micro grams/10 microlitres Q12h with SP. The procedure:
The effect of intrathecal (spinal) administration of NK-1 receptor antisense oligonucleotide on substance P-induced thermal hyperalgesia is shown in FIG. 1.
Latency to thermal stimulation (baseline (B) recordings) was assessed prior to intrathecal injection of substance P (SP, indicated by the arrow in both upper and lower panels). On day 0 (before oligonucleotide treatment has begun), SP (6.7 nmol/10 microlitres) produced a decrease in thermal latency to response indicating the occurrence of hyperalgesia (exaggerated response to noxious or painful stimulation, hollow symbols on both upper and lower panels). Oligonucleotide treatment (75 micro grams/10 microlitres, Q12h for 6 days) or ASCF control (artificial cerebral spinal fluid) was commenced subsequent to assessment of substance P-induced thermal hyperalgesia on day 0. Intrathecal SP (6.7 nmol/10 microlitres, Q12h for 6 days) was administered, in addition to the oligonucleotide, to stimulate NK-1 receptor turnover. Three days after twice-daily injections of antisense (AS) were begun, SP-induced thermal hyperalgesia was attenuated (upper graph, triangles). […] Statistical analysis was performed by a two way ANOVA with time and treatment as independent measures. Time: F(6,21)=10.234, p<0.01, Treatment: F(6,21)=8.245, p<0.05.

Entries after “also recorded” stand apart in the source; their conditions may differ.

For “5′gac gtt atc cat ttt ggg g3′ (antisense GACGTTATCCATTTTGGGG; listed as DNA, chemistry not fully specified) [NK-1 receptor antisense oligonucleotide used in all experiments]”, the “formalin-induced nociceptive responses, lower dose” value in the series on NK-1 receptor [1] (intrathecal continuous infusion 0.45 micro grams/microlitres/h for 7 days prior to testing) is “without effect; also recorded: no attenuation”. Further, the formalin-induced nociceptive scores entry in the series with NK-1 receptor [1] (intrathecal continuous infusion 1 micro grams/microlitres/h for 7 days prior to testing) and with NK-1 receptor [6] was “nociceptive scores are less” each time. In addition, the “magnitude of inflammation, measured as ankle circumference” value in the series on NK-1 receptor [2] was “less”. The “magnitude of inflammation, measured as ankle circumference, first phase” value in the series with NK-1 receptor [3] (first phase maximal at 48 h) is on record as “less”. For the same substance, the “magnitude of inflammation, measured as ankle circumference, second phase” value in the series on NK-1 receptor [3] (second phase maximal at day 18) is on record as “less”. Besides, the “mechanical response (withdrawal) threshold of either hind limb in naive rats” value in the series with NK-1 receptor [4] is given as “had no effect”. The “substance P-induced plasma extravasation (skin)” value in the series with NK-1 receptor [5] is listed as “significantly reduced”. The “SP-induced thermal hyperalgesia (thermal latency)” value in the series on NK-1 receptor [7] (six days after start) is reported as “further decrease in the response to SP”; in the series on NK-1 receptor [7] (three days after start), “attenuated”.

The values are drawn from patent US20030060438A1, “Oligonucleotides and other modulators of the NK-1 receptor pathway and therapeutic uses thereof” (priority 2000, published 2003).
